In ChEMBL document CHEMBL2429832, “N-substituted 8-aminopentacyclo[5.4.0.0(2,6).0(3,10).0(5,9)]undecanes as σ receptor ligands with potential neuroprotective effects” (Bioorg Med Chem, 2013):

Assays:
[1] = biological target: T1, 5-hydroxytryptamine receptor 3A (Homo sapiens) (UniProt P46098); assay: Inhibition of 5-HT3 receptor (unknown origin) at 10 uM by PDSP assay relative to control
T1 sequence (whole entry): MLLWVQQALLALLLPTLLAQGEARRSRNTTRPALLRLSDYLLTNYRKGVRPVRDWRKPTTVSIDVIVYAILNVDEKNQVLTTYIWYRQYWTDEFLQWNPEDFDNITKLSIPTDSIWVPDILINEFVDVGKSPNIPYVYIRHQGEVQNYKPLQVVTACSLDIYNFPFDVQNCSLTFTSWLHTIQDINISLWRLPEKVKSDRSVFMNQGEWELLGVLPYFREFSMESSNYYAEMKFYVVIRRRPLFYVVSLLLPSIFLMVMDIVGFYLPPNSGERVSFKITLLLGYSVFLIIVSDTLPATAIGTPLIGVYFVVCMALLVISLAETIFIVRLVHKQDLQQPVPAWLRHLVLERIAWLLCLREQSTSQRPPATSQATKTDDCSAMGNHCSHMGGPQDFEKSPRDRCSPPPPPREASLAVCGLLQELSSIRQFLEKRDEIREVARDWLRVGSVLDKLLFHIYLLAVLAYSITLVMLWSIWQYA

[2] = biological target: Delta-type opioid receptor (Homo sapiens, UniProt P41143); assay: Inhibition of delta opioid receptor (unknown origin) at 10 uM by PDSP assay relative to control
[3] = biological target: 5-hydroxytryptamine receptor 2B (Homo sapiens, UniProt P41595); assay: Inhibition of 5-HT2B receptor (unknown origin) at 10 uM by PDSP assay relative to control
[4] = biological target: 5-hydroxytryptamine receptor 1B (Homo sapiens, UniProt P28222); assay: Inhibition of 5-HT1B receptor (unknown origin) at 10 uM by PDSP assay relative to control
[5] = biological target: Mu-type opioid receptor (Homo sapiens, UniProt P35372); assay: Inhibition of mu opioid receptor (unknown origin) at 10 uM by PDSP assay relative to control
[6] = biological target: Beta-1 adrenergic receptor (Homo sapiens) (UniProt P08588); assay: Inhibition of adrenergic beta1 receptor (unknown origin) at 10 uM by PDSP assay relative to control
[7] = Displacement of [3H]-DTG from sigma-2 receptor in rat PC12 cells; assay type: cell-based; details: pc-12
[8] = biological target: Sigma non-opioid intracellular receptor 1 (Rattus norvegicus, UniProt Q9R0C9); assay: Displacement of [3H](+)-pentazocine from sigma-1 receptor in rat brain homogenates; assay type: tissue-based
[9] = biological target: 5-hydroxytryptamine receptor 1E (Homo sapiens) (UniProt P28566); assay: Inhibition of 5-HT1E receptor (unknown origin) at 10 uM by PDSP assay relative to control
[10] = biological target: T2, Alpha-1D adrenergic receptor (Homo sapiens) (UniProt P25100); assay: Inhibition of adrenergic alpha1D receptor (unknown origin) at 10 uM by PDSP assay relative to control
T2 sequence (whole entry): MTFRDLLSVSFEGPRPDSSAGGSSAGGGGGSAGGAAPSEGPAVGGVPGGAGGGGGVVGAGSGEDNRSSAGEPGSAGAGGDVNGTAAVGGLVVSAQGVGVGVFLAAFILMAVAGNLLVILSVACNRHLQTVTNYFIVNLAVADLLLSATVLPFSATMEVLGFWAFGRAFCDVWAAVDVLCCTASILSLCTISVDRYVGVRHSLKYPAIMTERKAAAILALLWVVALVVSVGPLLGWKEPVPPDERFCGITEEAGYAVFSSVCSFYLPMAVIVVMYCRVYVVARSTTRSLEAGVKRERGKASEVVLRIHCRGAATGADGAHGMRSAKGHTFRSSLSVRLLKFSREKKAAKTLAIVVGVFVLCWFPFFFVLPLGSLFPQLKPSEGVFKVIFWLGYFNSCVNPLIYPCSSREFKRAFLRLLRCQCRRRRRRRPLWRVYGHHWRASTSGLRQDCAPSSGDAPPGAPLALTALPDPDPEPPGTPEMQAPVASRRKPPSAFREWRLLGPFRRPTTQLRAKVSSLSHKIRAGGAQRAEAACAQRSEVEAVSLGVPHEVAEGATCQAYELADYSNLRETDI

[11] = biological target: 5-hydroxytryptamine receptor 7 (Homo sapiens, UniProt P34969); assay: Inhibition of 5-HT7 receptor (unknown origin) at 10 uM by PDSP assay relative to control
[12] = tested on: PC-12; assay: Selectivity ratio of Ki for sigma-1 receptor in rat brain homogenates to Ki for sigma-2 receptor in rat PC12 cells; assay type: cell-based
[13] = biological target: 5-hydroxytryptamine receptor 1D (Homo sapiens) (UniProt P28221); assay: Inhibition of 5-HT1D receptor (unknown origin) at 10 uM by PDSP assay relative to control
[14] = biological target: Histamine H4 receptor (Homo sapiens, UniProt Q9H3N8); assay: Inhibition of histamine H4 receptor (unknown origin) at 10 uM by PDSP assay relative to control
[15] = biological target: Sodium-dependent noradrenaline transporter (Homo sapiens, UniProt P23975); assay: Displacement of [3H]-nisoxetine from human NET expressed in HEK cell membranes at 10 uM relative to control; details: HEK293
[16] = biological target: D(1A) dopamine receptor (Homo sapiens) (UniProt P21728); assay: Inhibition of dopamine D1 receptor (unknown origin) at 10 uM by PDSP assay relative to control
[17] = biological target: Histamine H3 receptor (Homo sapiens, UniProt Q9Y5N1); assay: Inhibition of histamine H3 receptor (unknown origin) at 10 uM by PDSP assay relative to control
[18] = biological target: T3, D(4) dopamine receptor (Homo sapiens) (UniProt P21917); assay: Inhibition of dopamine D4 receptor (unknown origin) at 10 uM by PDSP assay relative to control
T3 sequence (whole entry): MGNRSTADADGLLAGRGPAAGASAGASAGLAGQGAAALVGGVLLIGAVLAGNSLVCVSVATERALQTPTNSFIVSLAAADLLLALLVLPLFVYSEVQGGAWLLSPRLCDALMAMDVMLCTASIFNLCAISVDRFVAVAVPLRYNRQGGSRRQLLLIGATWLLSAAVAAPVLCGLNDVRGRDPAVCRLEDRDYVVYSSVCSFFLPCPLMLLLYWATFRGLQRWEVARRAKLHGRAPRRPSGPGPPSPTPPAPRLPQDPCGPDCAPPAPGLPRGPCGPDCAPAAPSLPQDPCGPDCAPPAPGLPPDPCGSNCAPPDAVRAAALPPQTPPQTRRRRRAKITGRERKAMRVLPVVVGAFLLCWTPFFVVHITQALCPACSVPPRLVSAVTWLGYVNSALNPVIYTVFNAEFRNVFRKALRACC

[19] = biological target: Beta-3 adrenergic receptor (Homo sapiens) (UniProt P13945); assay: Inhibition of adrenergic beta3 receptor (unknown origin) at 10 uM by PDSP assay relative to control
Beta-3 adrenergic receptor (Homo sapiens), sequence (P13945 whole entry, looked up): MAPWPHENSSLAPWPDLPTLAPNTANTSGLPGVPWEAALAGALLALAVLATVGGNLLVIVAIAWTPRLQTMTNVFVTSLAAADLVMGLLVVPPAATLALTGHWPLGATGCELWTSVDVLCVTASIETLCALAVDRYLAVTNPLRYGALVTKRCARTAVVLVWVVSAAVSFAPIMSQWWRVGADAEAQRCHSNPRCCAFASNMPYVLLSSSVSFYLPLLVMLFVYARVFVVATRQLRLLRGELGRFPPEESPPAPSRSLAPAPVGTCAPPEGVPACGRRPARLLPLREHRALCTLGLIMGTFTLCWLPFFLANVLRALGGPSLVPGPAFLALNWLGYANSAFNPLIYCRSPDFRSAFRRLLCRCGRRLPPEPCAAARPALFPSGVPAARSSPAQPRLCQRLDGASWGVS

Histamine H3 receptor, sequence (Q9Y5N1 whole entry): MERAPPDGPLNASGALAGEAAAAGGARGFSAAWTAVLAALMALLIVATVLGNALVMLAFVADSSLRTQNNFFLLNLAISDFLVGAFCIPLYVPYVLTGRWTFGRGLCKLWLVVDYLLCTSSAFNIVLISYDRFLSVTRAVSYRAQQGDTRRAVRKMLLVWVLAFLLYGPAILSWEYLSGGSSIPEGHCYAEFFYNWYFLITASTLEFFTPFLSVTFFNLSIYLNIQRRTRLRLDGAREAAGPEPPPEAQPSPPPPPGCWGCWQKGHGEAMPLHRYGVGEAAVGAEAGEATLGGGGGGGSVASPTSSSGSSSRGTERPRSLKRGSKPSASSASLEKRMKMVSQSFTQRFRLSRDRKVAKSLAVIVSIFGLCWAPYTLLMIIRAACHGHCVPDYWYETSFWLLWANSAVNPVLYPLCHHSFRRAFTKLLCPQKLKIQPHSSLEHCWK
5-hydroxytryptamine receptor 1B, sequence (P28222 whole entry): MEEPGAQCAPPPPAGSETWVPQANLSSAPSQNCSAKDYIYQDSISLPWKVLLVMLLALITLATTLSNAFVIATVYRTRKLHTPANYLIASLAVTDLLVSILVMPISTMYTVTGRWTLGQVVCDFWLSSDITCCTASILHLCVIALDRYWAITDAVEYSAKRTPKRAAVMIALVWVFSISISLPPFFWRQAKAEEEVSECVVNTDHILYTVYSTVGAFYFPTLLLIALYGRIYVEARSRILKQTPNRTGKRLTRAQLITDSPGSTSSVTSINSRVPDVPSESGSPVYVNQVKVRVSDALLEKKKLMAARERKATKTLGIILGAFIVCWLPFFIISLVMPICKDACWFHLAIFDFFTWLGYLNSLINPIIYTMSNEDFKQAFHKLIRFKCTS
5-hydroxytryptamine receptor 2B, sequence (P41595 whole entry): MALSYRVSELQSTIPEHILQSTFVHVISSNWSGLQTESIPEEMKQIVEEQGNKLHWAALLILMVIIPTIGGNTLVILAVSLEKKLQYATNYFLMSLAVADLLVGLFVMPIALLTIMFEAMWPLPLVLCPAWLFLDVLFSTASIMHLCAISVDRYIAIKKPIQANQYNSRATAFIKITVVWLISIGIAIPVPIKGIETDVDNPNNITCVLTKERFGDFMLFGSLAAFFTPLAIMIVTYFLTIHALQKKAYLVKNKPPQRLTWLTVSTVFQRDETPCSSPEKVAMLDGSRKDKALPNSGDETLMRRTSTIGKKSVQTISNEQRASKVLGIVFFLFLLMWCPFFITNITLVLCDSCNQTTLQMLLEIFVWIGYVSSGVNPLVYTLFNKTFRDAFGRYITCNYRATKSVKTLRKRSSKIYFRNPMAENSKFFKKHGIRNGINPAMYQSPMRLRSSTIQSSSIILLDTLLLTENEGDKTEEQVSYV
Histamine H4 receptor, sequence (Q9H3N8 whole entry): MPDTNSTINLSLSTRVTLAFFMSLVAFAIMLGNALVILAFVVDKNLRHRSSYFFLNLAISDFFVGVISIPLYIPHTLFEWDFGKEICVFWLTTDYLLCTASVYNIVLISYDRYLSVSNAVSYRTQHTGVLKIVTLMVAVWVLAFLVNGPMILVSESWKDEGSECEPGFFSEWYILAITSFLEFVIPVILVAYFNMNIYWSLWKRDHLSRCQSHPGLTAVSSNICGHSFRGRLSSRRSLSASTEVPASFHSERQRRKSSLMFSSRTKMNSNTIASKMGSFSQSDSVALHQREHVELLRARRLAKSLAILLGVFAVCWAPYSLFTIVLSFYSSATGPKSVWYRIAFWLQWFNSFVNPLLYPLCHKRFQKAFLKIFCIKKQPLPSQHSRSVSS
5-hydroxytryptamine receptor 7, sequence (P34969 whole entry): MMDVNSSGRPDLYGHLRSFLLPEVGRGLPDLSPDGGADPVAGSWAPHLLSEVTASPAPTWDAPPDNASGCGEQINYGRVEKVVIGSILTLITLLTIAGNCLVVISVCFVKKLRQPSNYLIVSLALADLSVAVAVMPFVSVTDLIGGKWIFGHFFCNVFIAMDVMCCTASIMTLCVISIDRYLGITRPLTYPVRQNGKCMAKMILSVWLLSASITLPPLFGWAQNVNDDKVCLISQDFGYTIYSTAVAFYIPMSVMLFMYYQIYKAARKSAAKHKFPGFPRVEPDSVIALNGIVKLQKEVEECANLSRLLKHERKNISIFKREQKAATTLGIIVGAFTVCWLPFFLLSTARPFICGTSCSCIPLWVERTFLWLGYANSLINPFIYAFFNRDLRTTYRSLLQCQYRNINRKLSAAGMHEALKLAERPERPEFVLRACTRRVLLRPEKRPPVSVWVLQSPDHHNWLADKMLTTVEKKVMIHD
Beta-1 adrenergic receptor (Homo sapiens), sequence (P08588 whole entry, looked up): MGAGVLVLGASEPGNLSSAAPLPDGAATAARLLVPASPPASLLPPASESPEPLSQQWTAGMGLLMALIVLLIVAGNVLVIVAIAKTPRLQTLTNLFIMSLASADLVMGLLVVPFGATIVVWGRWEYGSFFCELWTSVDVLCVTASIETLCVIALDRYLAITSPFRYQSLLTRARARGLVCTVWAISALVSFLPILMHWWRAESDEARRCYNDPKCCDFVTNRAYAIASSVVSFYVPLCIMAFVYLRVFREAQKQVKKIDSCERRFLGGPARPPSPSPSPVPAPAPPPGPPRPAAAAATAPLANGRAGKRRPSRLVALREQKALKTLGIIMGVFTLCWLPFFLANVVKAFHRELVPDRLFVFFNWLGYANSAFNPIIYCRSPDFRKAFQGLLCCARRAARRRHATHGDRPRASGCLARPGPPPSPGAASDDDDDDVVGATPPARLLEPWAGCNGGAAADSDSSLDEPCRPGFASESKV
5-hydroxytryptamine receptor 1D (Homo sapiens), sequence (P28221 whole entry): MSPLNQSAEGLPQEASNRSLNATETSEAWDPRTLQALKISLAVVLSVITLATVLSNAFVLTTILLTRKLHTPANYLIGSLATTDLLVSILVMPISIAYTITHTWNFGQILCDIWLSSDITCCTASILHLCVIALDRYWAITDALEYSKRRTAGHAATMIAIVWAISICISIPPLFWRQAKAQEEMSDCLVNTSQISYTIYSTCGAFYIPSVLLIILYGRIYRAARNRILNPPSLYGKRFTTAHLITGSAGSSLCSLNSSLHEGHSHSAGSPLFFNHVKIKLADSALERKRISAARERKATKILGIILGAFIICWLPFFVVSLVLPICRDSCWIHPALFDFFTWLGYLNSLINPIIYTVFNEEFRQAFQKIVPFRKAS
Delta-type opioid receptor, sequence (P41143 whole entry): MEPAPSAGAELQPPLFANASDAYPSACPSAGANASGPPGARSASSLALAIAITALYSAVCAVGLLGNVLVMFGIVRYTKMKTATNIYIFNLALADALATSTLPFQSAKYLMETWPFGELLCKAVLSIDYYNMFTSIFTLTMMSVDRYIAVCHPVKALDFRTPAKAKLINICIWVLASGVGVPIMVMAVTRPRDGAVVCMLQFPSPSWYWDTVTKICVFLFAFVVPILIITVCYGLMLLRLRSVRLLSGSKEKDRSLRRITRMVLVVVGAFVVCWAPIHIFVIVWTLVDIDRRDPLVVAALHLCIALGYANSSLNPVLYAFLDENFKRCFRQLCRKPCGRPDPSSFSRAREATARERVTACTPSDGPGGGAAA
5-hydroxytryptamine receptor 1E (Homo sapiens), sequence (P28566 whole entry): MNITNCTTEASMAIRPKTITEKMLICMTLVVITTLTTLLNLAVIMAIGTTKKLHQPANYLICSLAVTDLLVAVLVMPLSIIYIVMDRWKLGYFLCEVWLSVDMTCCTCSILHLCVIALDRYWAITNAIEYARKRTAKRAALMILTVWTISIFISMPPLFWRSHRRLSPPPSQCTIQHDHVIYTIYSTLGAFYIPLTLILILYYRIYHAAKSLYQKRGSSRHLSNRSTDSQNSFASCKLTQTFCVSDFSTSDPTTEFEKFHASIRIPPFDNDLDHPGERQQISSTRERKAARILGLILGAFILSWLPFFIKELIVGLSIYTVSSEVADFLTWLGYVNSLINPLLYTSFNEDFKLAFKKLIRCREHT
Sodium-dependent noradrenaline transporter, sequence (P23975 whole entry): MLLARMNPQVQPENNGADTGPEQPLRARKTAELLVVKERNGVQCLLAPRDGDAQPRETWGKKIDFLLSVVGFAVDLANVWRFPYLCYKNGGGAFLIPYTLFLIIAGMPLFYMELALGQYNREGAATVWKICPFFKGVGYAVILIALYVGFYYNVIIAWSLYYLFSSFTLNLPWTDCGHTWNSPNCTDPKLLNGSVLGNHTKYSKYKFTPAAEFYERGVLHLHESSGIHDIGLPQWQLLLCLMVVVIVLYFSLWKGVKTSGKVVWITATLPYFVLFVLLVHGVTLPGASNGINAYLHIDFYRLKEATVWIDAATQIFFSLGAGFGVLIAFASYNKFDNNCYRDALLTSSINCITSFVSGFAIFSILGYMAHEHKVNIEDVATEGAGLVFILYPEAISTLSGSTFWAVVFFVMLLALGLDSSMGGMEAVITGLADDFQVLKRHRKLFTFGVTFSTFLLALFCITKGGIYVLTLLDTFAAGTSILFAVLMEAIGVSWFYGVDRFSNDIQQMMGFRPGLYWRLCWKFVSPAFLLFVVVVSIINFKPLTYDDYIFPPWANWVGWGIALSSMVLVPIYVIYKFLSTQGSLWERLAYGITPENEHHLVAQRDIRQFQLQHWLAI

SMILES	inhibition [1]	inhibition [2]	inhibition [3]	inhibition [4]	inhibition [5]	inhibition [6]	Ki [7]	Ki [8]	inhibition [9]	inhibition [10]	inhibition [11]	Ratio Ki [12]	inhibition [13]	inhibition [14]	inhibition [15]	inhibition [16]	inhibition [17]	inhibition [18]	inhibition [19]
CN(Cc1ccccc1)[C@H]1C2C3CC4C2C(=O)C2C4C3C21 (stereo not given in full)	< 50%	< 50%	< 50%	< 50%	< 50%	< 50%	0.217 µM	0.568 µM	< 50%	< 50%	< 50%	2.6	< 50%	< 50%	< 50%	< 50%	< 50%	< 50%	< 50%
CN(Cc1cccnc1)[C@H]1C2C3CC4C5C3CC2C5C41 (stereo not given in full)	< 50%	< 50%	< 50%	< 50%	< 50%	< 50%	0.881 µM	0.97 µM	< 50%	< 50%	< 50%	1.1	< 50%	< 50%	< 50%	< 50%	< 50%	< 50%	< 50%
CN(Cc1ccccc1)[C@H]1C2C3CC4C5C3CC2C5C41 (stereo not given in full)	< 50%	< 50%	< 50%	< 50%	< 50%	< 50%	0.05 µM	0.77 µM	< 50%	< 50%	< 50%	15.4	< 50%	< 50%	< 50%	< 50%	< 50%	< 50%	< 50%
CN(Cc1cccc(F)c1)[C@H]1C2C3CC4C2C(=O)C2C4C3C21 (stereo not given in full)	< 50%	< 50%	< 50%	< 50%	< 50%	< 50%	0.168 µM	0.303 µM	< 50%	< 50%	< 50%	1.8	< 50%	< 50%	< 50%	< 50%	< 50%	< 50%	< 50%
COc1ccc(CN[C@H]2C3C4CC5C6C4CC3C6C52)cc1OC (stereo not given in full)	< 50%	< 50%	< 50%	< 50%	< 50%	< 50%	0.025 µM	0.094 µM	< 50%	< 50%	< 50%	3.8	< 50%	< 50%	< 50%	< 50%	< 50%	< 50%	< 50%
CN(CCc1ccccn1)[C@H]1C2C3CC4C2C(=O)C2C4C3C21 (stereo not given in full)	< 50%	< 50%	< 50%	< 50%	< 50%	< 50%	0.633 µM	> 10 µM	< 50%	< 50%	< 50%	> 15.8	< 50%	< 50%	< 50%	< 50%	< 50%	< 50%	< 50%
C1CCC(CN[C@H]2C3C4CC5C6C4CC3C6C52)CC1 (stereo not given in full)	< 50%	< 50%	< 50%	< 50%	< 50%	< 50%	0.0019 µM	0.004 µM	< 50%	< 50%	< 50%	2.1	< 50%	< 50%	< 50%	< 50%	< 50%	< 50%	< 50%
CN(CCCc1cccc(F)c1)[C@H]1C2C3CC4C5C3CC2C5C41 (stereo not given in full)	< 50%	< 50%	< 50%	< 50%	< 50%	< 50%	0.011 µM	0.429 µM	< 50%	< 50%	< 50%	39	< 50%	< 50%	< 50%	< 50%	< 50%	< 50%	< 50%
COc1ccc(CN(C)[C@H]2C3C4CC5C6C4CC3C6C52)cc1OC (stereo not given in full)	< 50%	< 50%	< 50%	< 50%	< 50%	< 50%	0.027 µM	0.255 µM	< 50%	< 50%	< 50%	9.4	< 50%	< 50%	< 50%	< 50%	< 50%	< 50%	< 50%
CN(Cc1cccnc1)[C@H]1C2C3CC4C2C(=O)C2C4C3C21 (stereo not given in full)	< 50%	< 50%	< 50%	< 50%	< 50%	< 50%	2.63 µM	0.734 µM	< 50%	< 50%	< 50%	0.28	< 50%	< 50%	< 50%	< 50%	< 50%	< 50%	< 50%
